`CCS(=O)(=O)N=C1SCCN1Cc1ccc(Cl)nc1` gave a melting point of 125 to 126 °C.
`CC(=O)N=C1SCCN1Cc1ccc(Cl)nc1` showed a melting point of 76 to 78 °C.

From patent publication US20120277440A1, “IMINO DERIVATIVES, PROCESS FOR PREPARATION THEREOF, AND IN[…]” (MEIJI SEIKA PHARMA CO., LTD., priority 2010, published 2012)
